Experimental data published in PMC10817531, “Chlorinated Enyne Fatty Acid Amides from a Marine Cyanobacterium: Discovery of Taveuniamides L-M and Pharmacological Characterization of Taveuniamide F as a GPCR Antagonist with CNR1 Selectivity” (Marine Drugs, 2023).
Values joined by “and” are separate entries in the source; they are usually repeats but may differ in a detail not shown here. Equal entries are not always repeated.

Assays:
Type in all cases: cell-based
CNR1 [1] = target: T1, CNR1 (Homo sapiens, UniProt P21554); assay: PathHunter β-arrestin GpcrMAX assay
T1 construct: host or cells: CHO-K1
Method: (§1) GpcrMAX panel biosensor assays were used to characterize taveuniamide F (4, 20 µM) (agonist and antagonist mode). The experiments were carried out by DiscoveRx Corporation (Fremont, CA, USA) as described before, using PathHunter β-arrestin enzyme fragment complementation (EFC) technology.
(§2) Dose–response curves were obtained by subjecting taveuniamide F (4) to a secondary antagonist screen utilizing ten GPCR biosensor assays (Arrestin) against the following targets: GPR119, NPSR1b, HTR2C, CCR9, CHRM4, GPR120, HTR2A, GPR103, CNR1, and CNR2. Stably transfected HEK293 cells expressing GPR119, U2OS cells expressing NPSR1b, HTR2C and HTR2A, and CHO-K1 cells expressing the rest of the mentioned receptors, were incubated with 4 for 30 min. The assays were performed at 10-point concentrations using 3-fold serial dilutions in duplicate, where the highest concentration was 50 µM.

GPR103 = target: T2, GPR103 (Homo sapiens, UniProt Q96P65); assay: PathHunter β-arrestin GpcrMAX assay
T2 construct: host or cells: CHO-K1
T2 sequence (Q96P65 1-431): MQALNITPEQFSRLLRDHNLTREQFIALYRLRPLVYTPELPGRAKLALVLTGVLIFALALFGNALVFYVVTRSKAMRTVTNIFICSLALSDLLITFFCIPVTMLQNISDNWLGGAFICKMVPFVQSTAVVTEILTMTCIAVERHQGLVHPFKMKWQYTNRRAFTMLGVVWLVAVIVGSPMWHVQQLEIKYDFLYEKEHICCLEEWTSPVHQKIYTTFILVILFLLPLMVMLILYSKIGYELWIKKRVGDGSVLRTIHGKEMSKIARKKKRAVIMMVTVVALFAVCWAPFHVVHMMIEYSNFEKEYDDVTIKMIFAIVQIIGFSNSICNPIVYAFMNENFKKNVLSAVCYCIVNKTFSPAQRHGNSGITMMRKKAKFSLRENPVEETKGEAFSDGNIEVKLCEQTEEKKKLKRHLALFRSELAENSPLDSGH
Method: as §1, §2

GPR120 = target: T3, GPR120 (Homo sapiens, UniProt Q5NUL3); assay: PathHunter β-arrestin GpcrMAX assay
T3 construct: host or cells: CHO-K1
T3 sequence (Q5NUL3 1-361): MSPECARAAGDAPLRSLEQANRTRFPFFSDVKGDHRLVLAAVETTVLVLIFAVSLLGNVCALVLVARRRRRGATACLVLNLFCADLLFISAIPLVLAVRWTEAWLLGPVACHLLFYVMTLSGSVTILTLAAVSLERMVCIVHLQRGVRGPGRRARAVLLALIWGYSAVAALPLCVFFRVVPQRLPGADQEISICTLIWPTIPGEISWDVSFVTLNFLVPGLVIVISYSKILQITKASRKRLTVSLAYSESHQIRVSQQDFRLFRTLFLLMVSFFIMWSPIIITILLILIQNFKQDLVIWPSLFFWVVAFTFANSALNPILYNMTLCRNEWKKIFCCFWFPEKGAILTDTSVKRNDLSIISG
Method: as §1, §2

CCR3 = target: T4, CCR3 (Homo sapiens, UniProt P51677); assay: PathHunter β-arrestin GpcrMAX assay
T4 construct: purchased DiscoveRx (Eurofins) gpcrMAX PathHunter β-arrestin panel
Method: as §1

MC5R = target: T5, MC5R (Homo sapiens, UniProt P33032); assay: PathHunter β-arrestin GpcrMAX assay
T5 construct: purchased DiscoveRx (Eurofins) gpcrMAX PathHunter β-arrestin panel
Method: as §1

CCR5 = target: T6, CCR5 (Homo sapiens, UniProt P51681); assay: PathHunter β-arrestin GpcrMAX assay
T6 construct: purchased DiscoveRx (Eurofins) gpcrMAX PathHunter β-arrestin panel
Method: as §1

ADRA2C = target: T7, ADRA2C (Homo sapiens, UniProt P18825); assay: PathHunter β-arrestin GpcrMAX assay
T7 construct: purchased DiscoveRx (Eurofins) gpcrMAX PathHunter β-arrestin panel
Method: as §1

AGTR1 = AGTR1 (Homo sapiens, UniProt P30556); assay: PathHunter β-arrestin GpcrMAX assay
Method: as §1

ADRA2A = target: T8, ADRA2A (Homo sapiens, UniProt P08913); assay: PathHunter β-arrestin GpcrMAX assay
T8 construct: purchased DiscoveRx (Eurofins) gpcrMAX PathHunter β-arrestin panel
Method: as §1

MTT cell viability assay = settings: human, HEK293 cells; 24 h exposure, majority of tested concentrations (below 100 μM)
Method: (§3) HEK293 cells were purchased from ATCC (Manassas, VA, USA). They were cultured and maintained in Dulbecco’s modified Eagle medium (DMEM; Invitrogen, Waltham, MA, USA) supplemented with 10% fetal bovine serum (FBS; HyClone, Logan, UT, USA) and 1% antibiotic-antimycotic (Invitrogen) at 37 °C in a humidified atmosphere with 5% CO2. HEK293 cells were seeded in 96-well plates at densities of 15,000 cells per well in 100 μL, respectively. After 16 h of incubation, the cells were treated with 0.5 μL of various concentrations of compounds or a DMSO solvent control. Following 24 h of incubation, cells were treated with 3-(4,5-dimethylthiazol-2-yl)-2,5-diphenyltetrazolium bromide according to the manufacturer’s instructions (Promega, Madison, WI, USA). The experiments were performed as technical triplicates.

HEK293 cells = assay: MTT cell viability assay; settings: 24 h exposure, 100 μM
Method: as §3

CNR1 [2] = target: T1, CNR1; assay: cAMP Hunter eXpress CNR1 (CB1) CHO-K1 GPCR assay
Method: The experiments (agonist and antagonist mode) were carried out by DiscoveRx Corporation (Fremont, CA, USA). Human CNR1 in stably transfected CHO-K1 cells were seeded in a total volume of 20 μL into white-walled, 384-well microplates and incubated at 37 °C overnight. Before testing, cell plating media was exchanged with 10 μL of assay buffer (HBSS + 10 mM HEPES).
As described in catalog ref. (86-0007P-2277AG) for the agonist mode, intermediate dilution of sample stocks was performed to generate 4× samples in assay buffer. A total of 5 μL of 4× sample and 5 μL of 4× forskolin were added to cells and incubated at 37 °C for 30 min. The final assay vehicle concentration was 1%. The results are expressed as a percent efficacy relative to the maximum response of the control ligand.
As described in catalog ref. (86-0007P-2277AN) for the antagonist mode, intermediate dilution of sample stocks was performed to generate 4× samples in assay buffer. A total of 5 μL of 4X sample was added to cells and incubated at 37 °C for 30 min, and 5uL of 4× EC80 of CP55940 in 4× forskolin reagent was added and cells incubated for 37 °C for 30 min. The final assay vehicle concentration was 1%. The results are expressed as a percent inhibition of the control ligand. The assays were performed at 10-point concentrations of 4 using 3-fold serial dilutions in duplicate, where the highest concentration was 50 µM.

[3] = antagonist dose–response, 10-point, CHO-K1 cells, 30 min
[4] = antagonist mode (% inhibition), 20 µM

T1 sequence (P21554 whole entry): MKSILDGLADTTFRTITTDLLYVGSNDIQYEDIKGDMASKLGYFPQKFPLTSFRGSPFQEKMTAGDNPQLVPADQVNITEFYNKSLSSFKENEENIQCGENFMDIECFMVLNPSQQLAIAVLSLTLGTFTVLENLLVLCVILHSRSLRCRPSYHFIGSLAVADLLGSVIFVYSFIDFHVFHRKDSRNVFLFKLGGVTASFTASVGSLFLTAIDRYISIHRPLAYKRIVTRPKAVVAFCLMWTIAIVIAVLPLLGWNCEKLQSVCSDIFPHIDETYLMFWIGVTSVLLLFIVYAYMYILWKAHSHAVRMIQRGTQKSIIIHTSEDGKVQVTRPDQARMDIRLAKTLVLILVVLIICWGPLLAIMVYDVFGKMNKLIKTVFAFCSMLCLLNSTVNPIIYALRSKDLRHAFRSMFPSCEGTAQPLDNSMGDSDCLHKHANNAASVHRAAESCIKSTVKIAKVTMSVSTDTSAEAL
T8 sequence (P08913 whole entry): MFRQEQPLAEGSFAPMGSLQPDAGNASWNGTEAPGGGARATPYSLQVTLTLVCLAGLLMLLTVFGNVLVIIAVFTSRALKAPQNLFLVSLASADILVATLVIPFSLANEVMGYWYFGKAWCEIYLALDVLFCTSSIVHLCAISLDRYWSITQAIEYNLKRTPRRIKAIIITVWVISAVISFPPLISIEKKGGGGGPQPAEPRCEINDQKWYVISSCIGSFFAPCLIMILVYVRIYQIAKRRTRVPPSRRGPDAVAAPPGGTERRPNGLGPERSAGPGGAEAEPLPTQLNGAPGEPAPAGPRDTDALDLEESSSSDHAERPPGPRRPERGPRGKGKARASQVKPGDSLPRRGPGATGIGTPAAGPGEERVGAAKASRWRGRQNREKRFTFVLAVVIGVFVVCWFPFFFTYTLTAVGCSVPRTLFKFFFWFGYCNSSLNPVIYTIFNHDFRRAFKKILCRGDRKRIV
T6 sequence (P51681 whole entry): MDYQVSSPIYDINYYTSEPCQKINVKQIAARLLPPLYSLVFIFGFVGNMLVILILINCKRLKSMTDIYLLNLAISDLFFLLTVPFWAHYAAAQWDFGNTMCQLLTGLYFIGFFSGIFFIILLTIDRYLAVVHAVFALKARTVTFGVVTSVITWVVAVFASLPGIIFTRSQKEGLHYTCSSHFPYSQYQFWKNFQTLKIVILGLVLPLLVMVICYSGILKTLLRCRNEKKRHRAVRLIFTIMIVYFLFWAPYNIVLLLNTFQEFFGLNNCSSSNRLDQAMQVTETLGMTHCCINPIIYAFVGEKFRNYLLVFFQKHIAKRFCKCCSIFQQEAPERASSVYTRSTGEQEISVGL
AGTR1, sequence (P30556 whole entry): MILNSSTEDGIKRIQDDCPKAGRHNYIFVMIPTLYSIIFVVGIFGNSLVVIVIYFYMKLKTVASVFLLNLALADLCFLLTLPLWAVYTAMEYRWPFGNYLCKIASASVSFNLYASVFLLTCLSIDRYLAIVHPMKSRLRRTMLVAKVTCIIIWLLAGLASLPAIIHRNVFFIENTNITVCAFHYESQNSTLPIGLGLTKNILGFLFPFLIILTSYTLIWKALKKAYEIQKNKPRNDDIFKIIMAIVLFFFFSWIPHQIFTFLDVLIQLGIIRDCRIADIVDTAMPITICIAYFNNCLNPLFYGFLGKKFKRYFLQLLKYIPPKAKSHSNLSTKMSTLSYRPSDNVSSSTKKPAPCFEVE
T4 sequence (P51677 whole entry): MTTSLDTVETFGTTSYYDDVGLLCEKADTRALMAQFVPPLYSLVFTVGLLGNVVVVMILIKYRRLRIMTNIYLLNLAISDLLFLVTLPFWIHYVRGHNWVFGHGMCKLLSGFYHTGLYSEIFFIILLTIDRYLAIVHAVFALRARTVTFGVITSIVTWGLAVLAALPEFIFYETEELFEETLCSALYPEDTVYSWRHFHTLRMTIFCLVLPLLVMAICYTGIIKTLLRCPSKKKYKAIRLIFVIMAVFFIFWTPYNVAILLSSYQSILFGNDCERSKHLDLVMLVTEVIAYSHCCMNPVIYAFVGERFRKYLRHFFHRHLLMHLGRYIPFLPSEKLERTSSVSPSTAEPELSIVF
T5 sequence (P33032 whole entry): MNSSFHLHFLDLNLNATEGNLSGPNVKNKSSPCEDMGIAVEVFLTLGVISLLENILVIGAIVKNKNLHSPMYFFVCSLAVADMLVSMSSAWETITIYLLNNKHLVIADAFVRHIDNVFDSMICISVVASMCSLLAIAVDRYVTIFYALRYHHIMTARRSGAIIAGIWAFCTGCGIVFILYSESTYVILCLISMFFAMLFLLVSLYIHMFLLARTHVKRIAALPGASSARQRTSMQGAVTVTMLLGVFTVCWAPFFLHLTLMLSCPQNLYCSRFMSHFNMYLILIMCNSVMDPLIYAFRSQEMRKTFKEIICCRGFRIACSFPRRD
T7 sequence (P18825 whole entry): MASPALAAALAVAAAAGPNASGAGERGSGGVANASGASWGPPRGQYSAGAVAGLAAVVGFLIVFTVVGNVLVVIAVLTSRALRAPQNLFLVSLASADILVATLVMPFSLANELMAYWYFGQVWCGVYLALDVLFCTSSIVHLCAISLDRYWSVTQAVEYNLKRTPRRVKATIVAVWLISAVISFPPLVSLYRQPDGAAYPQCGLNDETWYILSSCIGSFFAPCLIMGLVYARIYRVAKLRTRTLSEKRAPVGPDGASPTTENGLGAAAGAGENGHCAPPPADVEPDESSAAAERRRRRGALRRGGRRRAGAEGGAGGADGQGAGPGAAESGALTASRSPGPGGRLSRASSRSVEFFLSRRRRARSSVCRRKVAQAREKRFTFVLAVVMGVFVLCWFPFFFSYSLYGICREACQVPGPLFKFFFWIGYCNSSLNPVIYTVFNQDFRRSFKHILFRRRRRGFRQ

IC50 (CNR1 [1]; [3]): 1.84 µM
inhibition (CNR1 [1]; [4]): ≥ 80%
inhibition at 20 µM (CNR1 [1]; [4]): 84%
selectivity for CNR1 over CNR2 (CNR1 [1]; antagonist screen (β-arrestin), CNR1 vs. CNR2): 6.8 fold
IC50 (GPR103; [3]): 14 µM and 14.1 µM
inhibition (GPR103; [4]): ≥ 80%
inhibition at 20 µM (GPR103; [4]): 79.8%
IC50 (GPR120; [3]): 4.7 µM and 4.72 µM
inhibition (GPR120; [4]): ≥ 80%
inhibition at 20 µM (GPR120; [4]): 96.9%
inhibition at 20 µM (CCR3): 19.2%
inhibition at 20 µM (MC5R): 39.8%
inhibition at 20 µM (CCR5): 14.7%
inhibition at 20 µM (ADRA2C): 25.1%
inhibition at 20 µM (AGTR1): 23.3%
inhibition at 20 µM (ADRA2A): 42.3%
mode of activity in CNR1 cAMP functional assay (CNR1 [2]; agonist and antagonist mode): antagonist/inverse agonist
IC50 (CNR1 [2]; antagonist mode, EC80 of CP55940, forskolin, CHO-K1 cells, read-out: IC50, inhibition of CNR1-agonist-induced cAMP downregulation): 21 µM
Compound: CC(=O)N[C@@H](CCCC#C/C=C/Cl)CCCCCCC(Cl)Cl [Compound 4, taveuniamide F]
viability at 24 h (MTT cell viability assay): 100%
reduction in cell viability (HEK293 cells): 56%
